Test results reported in patent US8697716B2, “Method of inhibiting C-KIT kinase” (Janssen Pharmaceutica NV, priority 2006, dated 2014).
Structures can show the parent of a compound that is named as a salt.

molecular target: isolated kinase domain of the human c-kit receptor (Homo sapiens (Human), UniProt P10721); test: c-Kit Fluorescence Polarization Kinase Assay; format: biochemical; conditions: 1 nM c-kit, 50 uM ATP, 45 minutes at room temperature; uncertainty +10%
Description: c-Kit Fluorescence Polarization Kinase Assay
The c-kit assay utilized the fluorescein-labeled phosphopeptide and the anti-phosphotyrosine antibody included in the Panvera Phospho-Tyrosine Kinase Kit (Green) supplied by Invitrogen. When c-kit phosphorylated the poly Glu4Tyr, the fluorescein-labeled phosphopeptide was displaced from the anti-phosphotyrosine antibody by the phosphorylated poly Glu4Tyr, thus decreasing the FP value. The c-kit kinase reaction was incubated at room temperature for 45 minutes under the following conditions: 1 nM c-kit (ProQinase, lot SP005), 100 ug/mL poly Glu4Tyr, 50 uM ATP, 5 mM MgCl2, 1 mM DTT, 0.01% Tween-20, 1% DMSO or compound in […], pH 7.5. The kinase reaction was stopped with the addition of EDTA. The fluorescein-labeled phosphopeptide and the anti-phosphotyrosine antibody were added and incubated for 30 minutes at room temperature and fluorescence polarization was read. Data points were an average of triplicate samples. Inhibition and IC50 data analysis were done with GraphPad Prism using a non-linear regression fit with a multiparamater, sigmoidal dose-response (variable slope) equation.

Sequence of isolated kinase domain of the human c-kit receptor (P10721 589-937): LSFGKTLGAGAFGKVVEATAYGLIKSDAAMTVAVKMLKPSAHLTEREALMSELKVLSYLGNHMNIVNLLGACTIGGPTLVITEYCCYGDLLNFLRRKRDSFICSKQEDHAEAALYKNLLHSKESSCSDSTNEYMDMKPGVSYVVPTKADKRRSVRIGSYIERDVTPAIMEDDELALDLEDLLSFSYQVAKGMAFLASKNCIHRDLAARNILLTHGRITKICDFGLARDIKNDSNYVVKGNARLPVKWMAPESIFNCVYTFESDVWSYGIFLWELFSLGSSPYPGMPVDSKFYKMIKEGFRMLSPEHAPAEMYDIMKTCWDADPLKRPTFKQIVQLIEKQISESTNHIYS

Compound	IC50 [µM]
N#Cc1c[nH]c(C(=O)Nc2ccc(C3CCN(CC(=O)O)CC3)cc2C2=CCCCC2)n1 [Compound 47, (4-{4-[(4-Cyano-1H-imidazole-2-carbonyl)-amino]-3-cyclohex-1-enyl-phenyl}-piperidin-1-yl)-acetic acid trifluoroacetic acid salt]	0.1
N#Cc1c[nH]c(C(=O)Nc2ccc(C3CCNCC3)cc2C2=CCCCC2)c1 [Compound 13, 4-Cyano-1H-pyrrole-2-carboxylic acid (2-cyclohex-1-enyl-4-piperidin-4-yl-phenyl)-amide trifluoroacetic acid salt]	0.26
C[C@@H]1CC(c2ccc(NC(=O)c3ncc(C#N)[nH]3)c(C3=CCCCC3)c2)C[C@H](C)N1 (stereo partly drawn) [Compound 51a, 5-Cyano-1H-imidazole-2-carboxylic acid [2-cyclohex-1-enyl-4-(cis-2,6-dimethyl-piperidin-4-yl)-phenyl]-amide bis trifluoroacetic acid salt]	0.0043
CC(=O)N1CCC(c2ccc(NC(=O)c3nc(C#N)c[nH]3)c(C3=CCS(=O)(=O)CC3)c2)CC1 [Compound 37, 4-Cyano-1H-imidazole-2-carboxylic acid [4-(1-acetyl-piperidin-4-yl)-2-(1,1-dioxo-1,2,3,6-tetrahydro-1λ^6-thiopyran-4-yl)-phenyl]-amide]	> 0.25
N#Cc1c[nH]c(C(=O)Nc2ccc(C3CCS(=O)(=O)CC3)cc2C2=CCCCC2)n1 [Compound 35, 4-Cyano-1H-imidazole-2-carboxylic acid [2-cyclohex-1-enyl-4-(1,1-dioxo-hexahydro-1λ^6-thiopyran-4-yl)-phenyl]-amide]	0.073
CC1(C)CC=C(c2nc(C3CCN(CCS(C)(=O)=O)CC3)ccc2NC(=O)c2nc(C#N)c[nH]2)CC1 [Compound 56, 4-Cyano-1H-imidazole-2-carboxylic acid [6-(4,4-dimethyl-cyclohex-1-enyl)-1′-(2-methanesulfonyl-ethyl)-1′,2′,3′,4′,5′,6′-hexhydro-[2,4′]bipyridinyl-5-yl]-amide trifluoroacetic acid salt]	0.039
N#Cc1c[nH]c(C(=O)Nc2ccc(C3CCN(Cc4ccccn4)CC3)cc2C2=CCCCC2)n1 [Compound 21, 4-Cyano-1H-imidazole-2-carboxylic acid [2-cyclohex-1-enyl-4-(1-pyridin-2-ylmethyl-piperidin-4-yl)-phenyl]-amide trifluoroacetic acid salt]	0.05
CC(=O)N1CCC(c2ccc(NC(=O)c3nc(C#N)c[nH]3)c(C3=CCCCC3)c2)CC1 [Compound 16, 4-Cyano-1H-imidazole-2-carboxylic acid [4-(1-acetyl-piperidin-4-yl)-2-cyclohex-1-enyl-phenyl]-amide]	0.057
CN1CCN(c2ccc(NC(=O)c3ccc(C#N)o3)c(C3=CCCCC3)c2)CC1 [Compound 11, 5-Cyano-furan-2-carboxylic acid [2-cyclohex-1-enyl-4-(4-methyl-piperazin-1-yl)-phenyl]-amide]	0.15
CN1CCN(c2ccc(NC(=O)c3ccc(C#N)o3)c(C3=CCOCC3)c2)CC1 [Compound 12]	> 0.25
N#Cc1c[nH]c(C(=O)Nc2ccc(C3CCN(C(=O)c4cc[n+]([O-])cc4)CC3)cc2C2=CCCCC2)n1 [Compound 41, 4-Cyano-1H-imidazole-2-carboxylic acid {2-cyclohex-1-enyl-4-[1-(1-oxy-pyridine-4-carbonyl)-piperidin-4-yl]-phenyl}-amide]	0.035
N#Cc1c[nH]c(C(=O)Nc2ccc(C3CCN(CCO)CC3)cc2C2=CCCCC2)n1 [Compound 26, 4-Cyano-1H-imidazole-2-carboxylic acid{2-cyclohex-1-enyl-4-[1-(2-hydroxy-ethyl)-piperidin-4-yl]-phenyl}-amide trifluoroacetic acid salt]	0.026
N#CCCN1CCC(c2ccc(NC(=O)c3nc(C#N)c[nH]3)c(C3=CCCCC3)c2)CC1 [Compound 27, 4-Cyano-1H-imidazole-2-carboxylic acid {4-[1-(2-cyano-ethyl)-piperidin-4-yl]-2-cyclohex-1-enyl-phenyl}-amide trifluoroacetic acid salt]	0.08
N#Cc1c[nH]c(C(=O)Nc2ccc(C3CCNCC3)cc2C2=CCCCC2)n1 [Compound 14, 4-Cyano-1H-imidazole-2-carboxylic acid (2-cyclohex-1-enyl-4-piperidin-4-yl-phenyl)-amide trifluoroacetic acid salt]	0.071
CN(C)CC(=O)N1CCC(c2ccc(NC(=O)c3nc(C#N)c[nH]3)c(C3=CCC(C)(C)CC3)n2)CC1 [Compound 55, 4-Cyano-1H-imidazole-2-carboxylic acid [1′-(2-dimethylamino-acetyl)-6-(4,4-dimethyl-cyclohex-1-enyl)-1′,2′,3′,4′,5′,6′-hexahydro-[2,4′]bipyridinyl-5-yl]-amide trifluoroacetic acid salt]	0.012
N#Cc1cnc(C(=O)Nc2ccc(C3CCN(C(=O)[C@H](O)CO)CC3)cc2C2=CCCCC2)[nH]1 [Compound 52, 5-Cyano-1H-imidazole-2-carboxylic acid{2-cyclohex-1-enyl-4-[1-(R)-(+)-(2,3-dihydroxy-propionyl)-piperidin-4-yl]-phenyl}-amide]	0.008
N#Cc1c[nH]c(C(=O)Nc2ccc(C3CCN(C(=O)CCN4CCOCC4)CC3)cc2C2=CCCCC2)n1 [Compound 8, 4-Cyano-1H-imidazole-2-carboxylic acid{2-cyclohex-1-enyl-4-[1-(3-morpholin-4-yl-propionyl)-piperidin-4-yl]-phenyl}-amide]	0.042
CC(C)(N)CC(=O)N1CCC(c2ccc(NC(=O)c3nc(C#N)c[nH]3)c(C3=CCCCC3)c2)CC1 [Compound 48, 4-Cyano-1H-imidazole-2-carboxylic acid {4-[1-(3-amino-3-methyl-butyryl)-piperidin-4-yl]-2-cyclohex-1-enyl-phenyl}-amide trifluoroacetic acid salt]	0.005

test system: BR-1 cells; test: c-Kit BR-1 Assay (inhibition of BR-1 cell proliferation); format: cell-based; conditions: Canis lupus familiaris; BR-1 dog mastocytoma line, constitutive-active mutant KIT; 72 hours, Cell TiterGlo
Description: Immediately following plating (time zero), 6 wells containing cells are treated with 100 μl of Promega Cell TiterGlo reagent and incubated 10 min with shaking. The intensity of the Cell TiterGlo signal (1 sec/well) is determined using a luminometer. The remaining cells are cultured 72 hours (37° C. and 5% CO2). Following the 72-hour growth interval, 100 μl of Promega Cell TiterGlo reagent is added to each well. The plates are incubated an additional 10 minutes with shaking and the intensity of the Cell TiterGlo signal (1 sec/well) is determined using a luminometer. Cell proliferation is defined by the difference between the time zero and time 72 hour signals.

Compound	IC50 [µM]
CN(C)CC(=O)N1CCC(c2ccc(NC(=O)c3nc(C#N)c[nH]3)c(C3=CCCCC3)c2)CC1 [Compound 38, 4-Cyano-1H-imidazole-2-carboxylic acid{2-cyclohex-1-enyl-4-[1-(2-dimethylamino-acetyl)-piperidin-4-yl]-phenyl}-amide]	0.09
CC1(C)CC=C(c2nc(C3CCN(CCS(C)(=O)=O)CC3)ccc2NC(=O)c2nc(C#N)c[nH]2)CC1 [Compound 56, 4-Cyano-1H-imidazole-2-carboxylic acid [6-(4,4-dimethyl-cyclohex-1-enyl)-1′-(2-methanesulfonyl-ethyl)-1′,2′,3′,4′,5′,6′-hexhydro-[2,4′]bipyridinyl-5-yl]-amide trifluoroacetic acid salt]	0.5
CN(C)CC(=O)N1CCC(c2ccc(NC(=O)c3nc(C#N)c[nH]3)c(C3=CCC(C)(C)CC3)n2)CC1 [Compound 55, 4-Cyano-1H-imidazole-2-carboxylic acid [1′-(2-dimethylamino-acetyl)-6-(4,4-dimethyl-cyclohex-1-enyl)-1′,2′,3′,4′,5′,6′-hexahydro-[2,4′]bipyridinyl-5-yl]-amide trifluoroacetic acid salt]	0.25
CS(=O)(=O)CCN1CCC(c2ccc(NC(=O)c3ncc(C#N)[nH]3)c(C3=CCCCC3)n2)CC1 [Compound 58, 5-Cyano-1H-imidazole-2-carboxylic acid [6-cyclohex-1-enyl-1′-(2-methanesulfonyl-ethyl)-1′,2′,3′,4′,5′,6′-hexahydro-[2,4′]bipyridinyl-5-yl]-amide]	1
CS(=O)(=O)CCN1CCC(c2ccc(NC(=O)c3nc(C#N)c[nH]3)c(C3=CCCCC3)c2)CC1 [Compound 40, 4-Cyano-1H-imidazole-2-carboxylic acid{2-cyclohex-1-enyl-4-[1-(2-methanesulfonyl-ethyl)-piperidin-4-yl]-phenyl}-amide]	0.25
CC1(C)CC=C(c2nc(C3CCNCC3)ccc2NC(=O)c2nc(C#N)c[nH]2)CC1 [Compound 54, 4-Cyano-1H-imidazole-2-carboxylic acid [6-(4,4-dimethyl-cyclohex-1-enyl)-1′,2′,3′,4′,5′,6′-hexahydro-[2,4′]bipyridinyl-5-yl]-amide trifluoroacetic acid salt]	0.9
